According to BigSolDB 2.1:

C#C[C@]1(O)C=C[C@H]2[C@@H]3CCC4=CC(=O)CC[C@@H]4[C@H]3CC[C@@]21CC
solubility (mole fraction)
Details | 283.15 K | 288.15 K | 293.15 K | 298.15 K | 303.15 K | 308.15 K | 313.15 K | 318.15 K | 323.15 K
in 2-butanone | 0.00956 | 0.0114 | 0.0134 | 0.0159 | 0.0188 | 0.0221 | 0.0258 | 0.0302 | 0.0352
in acetone | 0.00379 | 0.00499 | 0.00654 | 0.00862 | 0.0113 | 0.0147 | 0.0189 | 0.024 | 0.0302
in acetonitrile | 0.00262 | 0.00306 | 0.00358 | 0.00418 | 0.00487 | 0.00566 | 0.00655 | 0.00754 | 0.00868
in ethanol | 0.00314 | 0.00387 | 0.00473 | 0.00577 | 0.00701 | 0.0085 | 0.0102 | 0.0123 | 0.0147
in ethyl acetate | 0.0146 | 0.0161 | 0.018 | 0.0194 | 0.0211 | 0.0228 | 0.0247 | 0.0264 | 0.0282
in isopropanol | 0.00155 | 0.00199 | 0.0026 | 0.00328 | 0.00413 | 0.00519 | 0.00648 | 0.00809 | 0.0101
in isopropyl acetate | 0.0174 | 0.0213 | 0.0259 | 0.031 | 0.0371 | 0.044 | 0.052 | 0.061 | 0.0711
in methanol | 0.00457 | 0.0055 | 0.00655 | 0.00777 | 0.00917 | 0.0108 | 0.0125 | 0.0145 | 0.0168
in n-butanol | 0.00395 | 0.00465 | 0.00549 | 0.00642 | 0.0075 | 0.00875 | 0.0102 | 0.0118 | 0.0136
in n-propanol | 0.00376 | 0.00461 | 0.0056 | 0.00678 | 0.00817 | 0.00979 | 0.0117 | 0.014 | 0.0166
in water | 6.83e-06 | 7.69e-06 | 8.93e-06 | 1.06e-05 | 1.23e-05 | 1.42e-05 | 1.62e-05 | 1.87e-05 | 2.16e-05
